According to patent publication US11944622B2 (Annapurna Bio, Inc., priority 2018, dated 2024):

Target: T1, APJ Receptor (Homo sapiens, UniProt P35414)
T1 sequence (P35414 1-380): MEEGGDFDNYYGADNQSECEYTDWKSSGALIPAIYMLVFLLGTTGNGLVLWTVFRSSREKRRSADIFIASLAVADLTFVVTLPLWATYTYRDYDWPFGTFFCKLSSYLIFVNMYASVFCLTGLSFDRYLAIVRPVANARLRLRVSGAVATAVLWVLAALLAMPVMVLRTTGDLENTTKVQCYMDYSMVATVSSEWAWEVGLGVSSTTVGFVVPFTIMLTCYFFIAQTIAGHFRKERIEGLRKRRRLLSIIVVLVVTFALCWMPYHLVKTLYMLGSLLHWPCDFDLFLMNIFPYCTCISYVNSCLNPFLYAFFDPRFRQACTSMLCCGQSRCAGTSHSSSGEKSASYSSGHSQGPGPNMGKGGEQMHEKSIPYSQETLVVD
Experiment: APJ cAMP assay (DiscoverX enzyme fragment complementation; inhibition of forskolin-stimulated cAMP)
Assay type: cell-based
Details: CHO-K1 cell line stably expressing the APJ Receptor; EC80 forskolin; 30 minutes at 37° C.; read-out: Potency Range (APJ cAMP EC50)
Method in brief: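 CHO-K1 cells stably expressing APJ incubated with compound plus EC80 forskolin for 30 min at 37° C. cAMP detected by β-galactosidase enzyme fragment complementation with chemiluminescent read-out; % activity calculated relative to vehicle and maximal controls.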

SMILES | EC50 [nM]
CCOc1cccc(-c2nc3nc(NS(=O)(=O)C4CC4)cnc3n2-c2c(OC)cccc2OC)n1 [Example 92, N-(1-(2,6-Dimethoxyphenyl)-2-(6-ethoxypyridin-2-yl)-1H-imidazo[4,5-b]pyrazin-5-yl)cyclopropanesulfonamide] | 1 to 100
CCOc1cccc(-c2nc3nc(NS(=O)(=O)CC4(O)CNC4)cnc3n2-c2c(OC)cccc2OC)n1 [Example 93, N-(1-(2,6-Dimethoxyphenyl)-2-(6-ethoxypyridin-2-yl)-1H-imidazo[4,5-b]pyrazin-5-yl)-1-(3-hydroxyazetidin-3-yl)methanesulfonamide] | < 1
CCOc1cccc(-c2nc3nc(Cl)c(NS(=O)(=O)Cc4ncccc4F)nc3n2-c2c(OC)cccc2OC)n1 [Example 94, N-(5-Chloro-1-(2,6-dimethoxyphenyl)-2-(6-ethoxypyridin-2-yl)-1H-imidazo[4,5-b]pyrazin-6-yl)-1-(3-fluoropyridin-2-yl)methanesulfonamide] | 1 to 100
CCOc1cccc(-c2nc3nc(Cl)c(NS(=O)(=O)Cc4ccccn4)nc3n2-c2c(OC)cccc2OC)n1 [Example 95, N-(5-Chloro-1-(2,6-dimethoxyphenyl)-2-(6-ethoxypyridin-2-yl)-1H-imidazo[4,5-b]pyrazin-6-yl)-1-(pyridin-2-yl)methanesulfonamide] | 1 to 100
CCOc1cccc(-c2nc3nc(Cl)c(NS(=O)(=O)Cc4ccc(F)cn4)nc3n2-c2c(OC)cccc2OC)n1 [Example 96, N-(5-Chloro-1-(2,6-dimethoxyphenyl)-2-(6-ethoxypyridin-2-yl)-1H-imidazo[4,5-b]pyrazin-6-yl)-1-(5-fluoropyridin-2-yl)methanesulfonamide] | < 1
CCOc1cccc(-c2nc3nc(Cl)c(NS(=O)(=O)C4CC4)nc3n2-c2c(OC)cccc2OC)n1 [Example 97, N-(5-Chloro-1-(2,6-dimethoxyphenyl)-2-(6-ethoxypyridin-2-yl)-1H-imidazo[4,5-b]pyrazin-6-yl)cyclopropanesulfonamide] | 1 to 100
CCOc1cccc(-c2nc3nc(Cl)c(NS(=O)(=O)N4CCOCC4)nc3n2-c2c(OC)cccc2OC)n1 [Example 98, N-(5-Chloro-1-(2,6-dimethoxyphenyl)-2-(6-ethoxypyridin-2-yl)-1H-imidazo[4,5-b]pyrazin-6-yl)morpholine-4-sulfonamide] | 1 to 100
CCOc1cccc(-c2nc3nc(Cl)c(NS(=O)(=O)c4ccc(F)cn4)nc3n2-c2c(OC)cccc2OC)n1 [Example 99, N-(5-Chloro-1-(2,6-dimethoxyphenyl)-2-(6-ethoxypyridin-2-yl)-1H-imidazo[4,5-b]pyrazin-6-yl)-5-fluoropyridine-2-sulfonamide] | 1 to 100
CCOc1cccc(-c2nc3nc(Cl)c(NS(=O)(=O)Cc4ccc(C)cc4F)nc3n2-c2c(OC)cccc2OC)n1 [Example 100, N-(5-Chloro-1-(2,6-dimethoxyphenyl)-2-(6-ethoxypyridin-2-yl)-1H-imidazo[4,5-b]pyrazin-6-yl)-1-(2-fluoro-4-methylphenyl)methanesulfonamide] | 1 to 100
CCOc1cccc(-c2nc3nc(Cl)c(NS(=O)(=O)c4ccc(C)cn4)nc3n2-c2c(OC)cccc2OC)n1 [Example 101, N-(5-Chloro-1-(2,6-dimethoxyphenyl)-2-(6-ethoxypyridin-2-yl)-1H-imidazo[4,5-b]pyrazin-6-yl)-5-methylpyridine-2-sulfonamide] | < 1
CCOc1cccc(-c2nc3nc(Cl)c(NS(=O)(=O)c4ccccn4)nc3n2-c2c(OC)cccc2OC)n1 [Example 102, N-(5-Chloro-1-(2,6-dimethoxyphenyl)-2-(6-ethoxypyridin-2-yl)-1H-imidazo[4,5-b]pyrazin-6-yl)pyridine-2-sulfonamide] | 1 to 100
CCOc1cccc(-c2nc3nc(Cl)c(NS(=O)(=O)c4ccc(CF)cc4)nc3n2-c2c(OC)cccc2OC)n1 [Example 103, N-(5-Chloro-1-(2,6-dimethoxyphenyl)-2-(6-ethoxypyridin-2-yl)-1H-imidazo[4,5-b]pyrazin-6-yl)-4-(fluoromethyl)benzenesulfonamide] | < 1
CCOc1cccc(-c2nc3nc(Cl)c(NS(=O)(=O)c4cccnc4)nc3n2-c2c(OC)cccc2OC)n1 [Example 104, N-(5-Chloro-1-(2,6-dimethoxyphenyl)-2-(6-ethoxypyridin-2-yl)-1H-imidazo[4,5-b]pyrazin-6-yl)pyridine-3-sulfonamide] | 1 to 100
CCOc1cccc(-c2nc3nc(Cl)c(NS(=O)(=O)Cc4ncc(F)cn4)nc3n2-c2c(OC)cccc2OC)n1 [Example 105, N-(5-Chloro-1-(2,6-dimethoxyphenyl)-2-(6-ethoxypyridin-2-yl)-1H-imidazo[4,5-b]pyrazin-6-yl)-1-(5-fluoropyrimidin-2-yl)methanesulfonamide] | < 1
CCOc1cccc(-c2nc3nc(Cl)c(NS(=O)(=O)c4ccc(C(F)F)cc4)nc3n2-c2c(OC)cccc2OC)n1 [Example 106, N-(5-Chloro-1-(2,6-dimethoxyphenyl)-2-(6-ethoxypyridin-2-yl)-1H-imidazo[4,5-b]pyrazin-6-yl)-4-(difluoromethyl)benzenesulfonamide] | 1 to 100
CCOc1cccc(-c2nc3nc(Cl)c(NS(=O)(=O)Cc4ccc(C)c(F)c4)nc3n2-c2c(OC)cccc2OC)n1 [Example 107, N-(5-Chloro-1-(2,6-dimethoxyphenyl)-2-(6-ethoxypyridin-2-yl)-1H-imidazo[4,5-b]pyrazin-6-yl)-1-(3-fluoro-4-methylphenyl)methanesulfonamide] | < 1
CCOc1cccc(-c2nc3nc(Cl)c(NS(=O)(=O)Cc4ccc(F)cc4)nc3n2-c2c(OC)cccc2OC)n1 [Example 108, N-(5-Chloro-1-(2,6-dimethoxyphenyl)-2-(6-ethoxypyridin-2-yl)-1H-imidazo[4,5-b]pyrazin-6-yl)-1-(4-fluorophenyl)methanesulfonamide] | < 1
CCOc1cccc(-c2nc3nc(Cl)c(NS(=O)(=O)Cc4ncccn4)nc3n2-c2c(OC)cccc2OC)n1 [Example 109, N-(5-Chloro-1-(2,6-dimethoxyphenyl)-2-(6-ethoxypyridin-2-yl)-1H-imidazo[4,5-b]pyrazin-6-yl)-1-(pyrimidin-2-yl)methanesulfonamide] | 1 to 100
CC#CCS(=O)(=O)Nc1nc2c(nc1Cl)nc(-c1cccc(OCC)n1)n2-c1c(OC)cccc1OC [Example 110, N-(5-Chloro-1-(2,6-dimethoxyphenyl)-2-(6-ethoxypyridin-2-yl)-1H-imidazo[4,5-b]pyrazin-6-yl)but-2-yne-1-sulfonamide] | < 1
CCOc1cccc(-c2nc3nc(Cl)c(NS(=O)(=O)C4CCOCC4)nc3n2-c2c(OC)cccc2OC)n1 [Example 111, N-(5-Chloro-1-(2,6-dimethoxyphenyl)-2-(6-ethoxypyridin-2-yl)-1H-imidazo[4,5-b]pyrazin-6-yl)tetrahydro-2H-pyran-4-sulfonamide] | 1 to 100
CCOc1cccc(-c2nc3nc(Cl)c(NS(=O)(=O)N(C)C4CC4)nc3n2-c2c(OC)cccc2OC)n1 [Example 112, N-(5-Chloro-1-(2,6-dimethoxyphenyl)-2-(6-ethoxypyridin-2-yl)-1H-imidazo[4,5-b]pyrazin-6-yl)-N′-methyl-N′-cyclopropylsulfamide] | < 1
CCOc1cccc(-c2nc3nc(Cl)c(NS(=O)(=O)CC4(O)CC4)nc3n2-c2c(OC)cccc2OC)n1 [Example 113, N-(5-Chloro-1-(2,6-dimethoxyphenyl)-2-(6-ethoxypyridin-2-yl)-1H-imidazo[4,5-b]pyrazin-6-yl)-1-(1-hydroxycyclopropyl)methanesulfonamide] | 1 to 100
CCOc1cccc(-c2nc3nc(Cl)c(NS(=O)(=O)Cc4ccc(C)cn4)nc3n2-c2c(OC)cccc2OC)n1 [Example 114, N-(5-Chloro-1-(2,6-dimethoxyphenyl)-2-(6-ethoxypyridin-2-yl)-1H-imidazo[4,5-b]pyrazin-6-yl)-1-(5-methylpyridin-2-yl)methanesulfonamide] | 1 to 100
CCOc1cccc(-c2nc3nc(Cl)c(NS(=O)(=O)C[C@H]4C[C@](C)(O)C4)nc3n2-c2c(OC)cccc2OC)n1 [Example 115, N-(5-Chloro-1-(2,6-dimethoxyphenyl)-2-(6-ethoxypyridin-2-yl)-1H-imidazo[4,5-b]pyrazin-6-yl)-1-((1r,3r)-3-hydroxymethylcyclobutyl) methanesulfonamide] | < 1
CCOc1cccc(-c2nc3nc(Cl)c(NS(=O)(=O)N4CCC(O)CC4)nc3n2-c2c(OC)cccc2OC)n1 [Example 116, N-(5-Chloro-1-(2,6-dimethoxyphenyl)-2-(6-ethoxypyridin-2-yl)-1H-imidazo[4,5-b]pyrazin-6-yl)-4-hydroxypiperidine-1-sulfonamide] | 1 to 100
CCOc1cccc(-c2nc3nc(Cl)c(NS(C)(=O)=O)nc3n2-c2c(OC)cncc2OC)n1 [Example 117, N-(5-Chloro-1-(3,5-dimethoxypyridin-4-yl)-2-(6-ethoxypyridin-2-yl)-1H-imidazo[4,5-b]pyrazin-6-yl)methanesulfonamide] | 1 to 100
CCOc1cccc(-c2nc3nc(Cl)c(NS(=O)(=O)C4CC4)nc3n2-c2c(OC)cncc2OC)n1 [Example 118, N-(5-Chloro-1-(3,5-dimethoxypyridin-4-yl)-2-(6-ethoxypyridin-2-yl)-1H-imidazo[4,5-b]pyrazin-6)cyclopropanesulfonamide] | 1 to 100
CCOc1cccc(-c2nc3nnc(NS(=O)(=O)C4CC4)cc3n2-c2c(OC)cccc2OC)n1 [Example 119, N-(7-(2,6-Dimethoxyphenyl)-8-(6-ethoxypyridin-2-yl)-7H-imidazo[4,5-c]pyridazinyl)cyclopropanesulfonamide] | 1 to 100
